Measurements reported in PubChem BioAssay (NCI).
Where “and” joins values, the source holds several entries; their conditions need not be identical. Equal entries are not always repeated.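 Values below derive from 48-hour exposures of cells grown in 96-well plates, with endpoints linearly interpolated between the two concentrations bracketing the appropriate inhibition level. At the GI50, growth is halved. TGI is the concentration that stops growth completely.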

Tests used:
Assay in all cases: NCI tumour cell line growth inhibition, 48 h
HL-60(TB) leukemia = tested on: HL-60(TB) leukemia
SK-MEL-5 melanoma = tested on: SK-MEL-5 melanoma
CCRF-CEM leukemia = tested on: CCRF-CEM leukemia
SF-268 CNS = tested on: SF-268 CNS
DMS 114 small cell lung = tested on: DMS 114 small cell lung
SW-620 colon = tested on: SW-620 colon
RPMI-8226 leukemia = tested on: RPMI-8226 leukemia
HCT-116 colon = tested on: HCT-116 colon
EKVX NSCLC = tested on: EKVX NSCLC
M19-MEL melanoma = tested on: M19-MEL melanoma
SK-MEL-2 melanoma = tested on: SK-MEL-2 melanoma
ACHN renal = tested on: ACHN renal
MOLT-4 leukemia = tested on: MOLT-4 leukemia
U251 CNS = tested on: U251 CNS
SNB-19 CNS = tested on: SNB-19 CNS
UACC-62 melanoma = tested on: UACC-62 melanoma
M14 melanoma = tested on: M14 melanoma
786-0 renal = tested on: 786-0 renal
SF-539 CNS = tested on: SF-539 CNS
SNB-78 CNS = tested on: SNB-78 CNS
UO-31 renal = tested on: UO-31 renal
KM20L2 colon = tested on: KM20L2 colon
COLO 205 colon = tested on: COLO 205 colon
OVCAR-5 ovarian = tested on: OVCAR-5 ovarian
HOP-92 NSCLC = tested on: HOP-92 NSCLC
UACC-257 melanoma = tested on: UACC-257 melanoma
OVCAR-8 ovarian = tested on: OVCAR-8 ovarian
HCC-2998 colon = tested on: HCC-2998 colon
OVCAR-4 ovarian = tested on: OVCAR-4 ovarian
DLD-1 colon = tested on: DLD-1 colon
RXF 393 renal = tested on: RXF 393 renal
NCI-H23 lung = tested on: NCI-H23 lung
A498 renal = tested on: A498 renal
TK-10 renal = tested on: TK-10 renal
A549 NSCLC = tested on: A549 NSCLC
SF-295 CNS = tested on: SF-295 CNS
K-562 leukemia = tested on: K-562 leukemia
MALME-3M melanoma = tested on: MALME-3M melanoma
HOP-18 NSCLC = tested on: HOP-18 NSCLC
SK-MEL-28 melanoma = tested on: SK-MEL-28 melanoma
KM12 colon = tested on: KM12 colon
HCT-15 colon = tested on: HCT-15 colon
OVCAR-3 ovarian = tested on: OVCAR-3 ovarian
NCI-H460 lung = tested on: NCI-H460 lung
HT29 colon = tested on: HT29 colon
RXF-631 renal = tested on: RXF-631 renal
SN12C renal = tested on: SN12C renal
LXFL 529 NSCLC = tested on: LXFL 529 NSCLC
HOP-62 NSCLC = tested on: HOP-62 NSCLC
XF 498 CNS = tested on: XF 498 CNS
NCI-H522 lung = tested on: NCI-H522 lung
CAKI-1 renal = tested on: CAKI-1 renal
NCI-H226 lung = tested on: NCI-H226 lung
SNB-75 CNS = tested on: SNB-75 CNS
LOX IMVI melanoma = tested on: LOX IMVI melanoma
SK-OV-3 ovarian = tested on: SK-OV-3 ovarian
IGROV1 ovarian = tested on: IGROV1 ovarian
MDA-N = tested on: MDA-N
NCI/ADR-RES ovarian = tested on: NCI/ADR-RES ovarian
PC-3 prostate = tested on: PC-3 prostate
MDA-MB-435 = tested on: MDA-MB-435
BT-549 breast = tested on: BT-549 breast
DU-145 prostate = tested on: DU-145 prostate
MDA-MB-231 breast = tested on: MDA-MB-231 breast
P388 leukemia = tested on: P388 leukemia
SR leukemia = tested on: SR leukemia
DMS 273 small cell lung = tested on: DMS 273 small cell lung

## CN(C)CCC1(C2=CCCC2)CC/C(=C\c2ccc3c(c2)OCO3)C1=O (stereo unspecified)
HL-60(TB) leukemia
  TGI: 37 µM
SK-MEL-5 melanoma
  TGI: 27.6 µM
CCRF-CEM leukemia
  TGI: 41.4 µM
SF-268 CNS
  TGI: 28.1 µM
DMS 114 small cell lung
  TGI: 32.7 µM
SW-620 colon
  TGI: 29.9 µM
RPMI-8226 leukemia
  TGI: 73.9 µM
HCT-116 colon
  TGI: 26.9 µM
EKVX NSCLC
  TGI: 29.3 µM
M19-MEL melanoma
  TGI: 32.6 µM
SK-MEL-2 melanoma
  TGI: 31.6 µM
ACHN renal
  TGI: 29.6 µM
MOLT-4 leukemia
  TGI: 31.4 µM
U251 CNS
  TGI: 29 µM
SNB-19 CNS
  TGI: 43.5 µM
UACC-62 melanoma
  TGI: 39.5 µM
M14 melanoma
  TGI: 28.3 µM
786-0 renal
  TGI: 26.9 µM
SF-539 CNS
  TGI: 30.2 µM
SNB-78 CNS
  TGI: 35 µM
UO-31 renal
  TGI: 20.2 µM
KM20L2 colon
  TGI: 28.6 µM
COLO 205 colon
  TGI: 47.7 µM
OVCAR-5 ovarian
  TGI: 29.2 µM
HOP-92 NSCLC
  TGI: 24.4 µM
UACC-257 melanoma
  TGI: 29 µM
OVCAR-8 ovarian
  TGI: 29 µM
HCC-2998 colon
  TGI: 29.6 µM
OVCAR-4 ovarian
  TGI: 27.1 µM
DLD-1 colon
  TGI: 38.3 µM
RXF 393 renal
  TGI: 21.3 µM
NCI-H23 lung
  TGI: 33 µM
A498 renal
  TGI: 24.7 µM
TK-10 renal
  TGI: 29.2 µM
A549 NSCLC
  TGI: 31.8 µM
SF-295 CNS
  TGI: 29.5 µM
K-562 leukemia
  TGI: 32 µM
MALME-3M melanoma
  TGI: 30.1 µM
HOP-18 NSCLC
  TGI: 26.4 µM
SK-MEL-28 melanoma
  TGI: 27.4 µM
KM12 colon
  TGI: 31.8 µM
HCT-15 colon
  TGI: 29 µM
OVCAR-3 ovarian
  TGI: 31.6 µM
NCI-H460 lung
  TGI: 36.2 µM
HT29 colon
  TGI: 25.2 µM
RXF-631 renal
  TGI: 38.7 µM
SN12C renal
  TGI: 28.8 µM
LXFL 529 NSCLC
  TGI: 25.5 µM

## O=C1CCC2(c3ccc(F)cc3)Nc3ccccc3N12 (stereo unspecified)
HOP-62 NSCLC
  TGI: > 100 µM
HL-60(TB) leukemia
  TGI: > 100 µM
SK-MEL-5 melanoma
  TGI: > 100 µM
CCRF-CEM leukemia
  TGI: > 100 µM
SF-268 CNS
  TGI: > 100 µM
XF 498 CNS
  TGI: > 100 µM
DMS 114 small cell lung
  TGI: > 100 µM
SW-620 colon
  TGI: > 100 µM
RPMI-8226 leukemia
  TGI: > 100 µM
EKVX NSCLC
  TGI: > 100 µM
M19-MEL melanoma
  TGI: > 100 µM
SK-MEL-2 melanoma
  TGI: > 100 µM
ACHN renal
  TGI: > 100 µM
MOLT-4 leukemia
  TGI: > 100 µM
U251 CNS
  TGI: > 100 µM
UACC-62 melanoma
  TGI: > 100 µM
M14 melanoma
  TGI: > 100 µM
786-0 renal
  TGI: > 100 µM
NCI-H522 lung
  TGI: > 100 µM
SF-539 CNS
  TGI: > 100 µM
SNB-78 CNS
  TGI: > 100 µM
UO-31 renal
  TGI: > 100 µM
KM20L2 colon
  TGI: > 100 µM
COLO 205 colon
  TGI: > 100 µM
OVCAR-5 ovarian
  TGI: > 100 µM
HOP-92 NSCLC
  TGI: > 100 µM
UACC-257 melanoma
  TGI: > 100 µM
OVCAR-8 ovarian
  TGI: > 100 µM
HCC-2998 colon
  TGI: > 100 µM
OVCAR-4 ovarian
  TGI: > 100 µM
DLD-1 colon
  TGI: > 100 µM
RXF 393 renal
  TGI: > 100 µM
CAKI-1 renal
  TGI: > 100 µM
NCI-H23 lung
  TGI: > 100 µM
A498 renal
  TGI: > 100 µM
TK-10 renal
  TGI: > 100 µM
NCI-H226 lung
  TGI: > 100 µM
A549 NSCLC
  TGI: > 100 µM
SF-295 CNS
  TGI: > 100 µM
SNB-75 CNS
  TGI: > 100 µM
K-562 leukemia
  TGI: > 100 µM
MALME-3M melanoma
  TGI: > 100 µM
SK-MEL-28 melanoma
  TGI: > 100 µM
KM12 colon
  TGI: > 100 µM
HCT-15 colon
  TGI: > 100 µM
OVCAR-3 ovarian
  TGI: > 100 µM
NCI-H460 lung
  TGI: > 100 µM
HT29 colon
  TGI: > 100 µM
RXF-631 renal
  TGI: > 100 µM
LOX IMVI melanoma
  TGI: > 100 µM
SK-OV-3 ovarian
  TGI: > 100 µM
SN12C renal
  TGI: > 100 µM
LXFL 529 NSCLC
  TGI: > 100 µM
IGROV1 ovarian
  TGI: > 100 µM

## CC[C@@H](C)[C@@H]1NC(=O)C(NC(=O)C(CC(C)C)N(C)C(=O)C2CCCN2C(=O)C(C)O)C(C)OC(=O)C(Cc2ccc(OC)cc2)N(C)C(=O)C2CCCN2C(=O)C(CC(C)C)NC(=O)C(C)C(=O)C(C(C)C)OC(=O)C[C@H]1O (stereo partly specified)
MDA-N
  GI50: 0.0021 µM
NCI/ADR-RES ovarian
  TGI: 1.88 µM and 0.359 µM
ACHN renal
  TGI: 0.0204 µM and 0.053 µM
MOLT-4 leukemia
  TGI: 0.0547 µM and 0.0255 µM
PC-3 prostate
  GI50: 0.00251 µM
  TGI: 0.0425 µM and 0.0487 µM
MDA-MB-435
  TGI: 0.00316 µM and 0.00845 µM
M14 melanoma
  TGI: 0.00648 µM and 0.039 µM
786-0 renal
  TGI: 0.00827 µM and 0.0533 µM
SNB-78 CNS
  GI50: 1.65 pM
BT-549 breast
  TGI: 0.0967 µM
DU-145 prostate
  TGI: 0.0504 µM
MDA-MB-231 breast
  TGI: 0.0199 µM and 0.053 µM
HCC-2998 colon
  TGI: 0.00511 µM and 0.0314 µM
RXF 393 renal
  TGI: 0.01 µM and 0.0647 µM
TK-10 renal
  TGI: 0.0495 µM and 0.0741 µM
SF-295 CNS
  TGI: 0.0115 µM and 0.0194 µM and 0.029 µM
P388 leukemia
  TGI: 0.03 µM and < 0.0103 µM

## CC(C)(C)C1CC[C@H]2c3c([nH]c4ccc(Br)cc34)[C@H]3C(=O)N(c4ccccc4)C(=O)[C@H]3[C@H]2C1 (stereo partly specified)
HOP-62 NSCLC
  TGI: > 100 µM
HL-60(TB) leukemia
  TGI: 35.1 µM
SK-MEL-5 melanoma
  TGI: > 100 µM
CCRF-CEM leukemia
  TGI: 20.1 µM
SF-268 CNS
  TGI: 95.1 µM
XF 498 CNS
  TGI: 38.2 µM
DMS 114 small cell lung
  TGI: 69.1 µM
SW-620 colon
  TGI: > 100 µM
RPMI-8226 leukemia
  TGI: > 100 µM
HCT-116 colon
  TGI: > 100 µM
EKVX NSCLC
  TGI: > 100 µM
M19-MEL melanoma
  TGI: 49.8 µM
SK-MEL-2 melanoma
  TGI: > 100 µM
ACHN renal
  TGI: > 100 µM
MOLT-4 leukemia
  TGI: 71.6 µM
U251 CNS
  TGI: 36.5 µM
SR leukemia
  TGI: 12.1 µM
SNB-19 CNS
  TGI: 66.9 µM
UACC-62 melanoma
  TGI: 87.4 µM
M14 melanoma
  TGI: > 100 µM
786-0 renal
  TGI: 23.6 µM
NCI-H522 lung
  TGI: 69.3 µM
SNB-78 CNS
  TGI: 33.4 µM
UO-31 renal
  TGI: > 100 µM
KM20L2 colon
  TGI: > 100 µM
COLO 205 colon
  TGI: 44.2 µM
OVCAR-5 ovarian
  TGI: > 100 µM
HOP-92 NSCLC
  TGI: 78.7 µM
UACC-257 melanoma
  TGI: > 100 µM
OVCAR-8 ovarian
  TGI: 11.8 µM
HCC-2998 colon
  TGI: > 100 µM
OVCAR-4 ovarian
  TGI: 33.3 µM
DLD-1 colon
  TGI: > 100 µM
RXF 393 renal
  TGI: > 100 µM
CAKI-1 renal
  TGI: > 100 µM
DMS 273 small cell lung
  TGI: 22.4 µM
NCI-H23 lung
  TGI: > 100 µM
TK-10 renal
  TGI: > 100 µM
NCI-H226 lung
  TGI: 81.8 µM
A549 NSCLC
  TGI: > 100 µM
SF-295 CNS
  TGI: 43.1 µM
SNB-75 CNS
  TGI: 54.9 µM
K-562 leukemia
  TGI: > 100 µM
MALME-3M melanoma
  TGI: > 100 µM
HOP-18 NSCLC
  TGI: > 100 µM
SK-MEL-28 melanoma
  TGI: > 100 µM
KM12 colon
  TGI: > 100 µM
OVCAR-3 ovarian
  TGI: > 100 µM
NCI-H460 lung
  TGI: 38.9 µM
HT29 colon
  TGI: > 100 µM
RXF-631 renal
  TGI: 19.5 µM
LOX IMVI melanoma
  TGI: > 100 µM
SK-OV-3 ovarian
  TGI: 40.8 µM
SN12C renal
  TGI: 57.3 µM
LXFL 529 NSCLC
  TGI: 31.3 µM
IGROV1 ovarian
  TGI: > 100 µM
